For one assay, the target named is Insulin receptor (Homo sapiens, UniProt P06213).
The target in assay [1] is Cyclin-dependent kinase 12 (Homo sapiens, UniProt Q9NYV4).
Assay [2] deals with T1, Phosphatidylinositol 5-phosphate 4-kinase type-2 alpha (Homo sapiens, UniProt P48426).
T1 sequence (P48426 whole entry): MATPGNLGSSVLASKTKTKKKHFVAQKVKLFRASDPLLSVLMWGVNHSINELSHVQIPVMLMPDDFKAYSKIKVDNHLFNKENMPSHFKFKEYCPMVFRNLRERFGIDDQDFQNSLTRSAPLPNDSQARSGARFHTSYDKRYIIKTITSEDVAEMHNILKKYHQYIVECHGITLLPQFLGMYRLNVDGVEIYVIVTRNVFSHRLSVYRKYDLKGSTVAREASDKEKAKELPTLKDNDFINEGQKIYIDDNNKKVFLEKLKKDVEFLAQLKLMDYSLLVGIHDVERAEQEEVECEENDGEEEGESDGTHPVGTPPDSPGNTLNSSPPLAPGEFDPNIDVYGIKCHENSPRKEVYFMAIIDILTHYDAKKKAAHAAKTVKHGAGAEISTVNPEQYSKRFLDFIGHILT

For the next assay, the target named is Aurora kinase B (Homo sapiens, UniProt Q96GD4).
The target of assay [3] is T2, Mitogen-activated protein kinase kinase kinase 2 (Homo sapiens, UniProt Q9Y2U5).
T2 sequence (Q9Y2U5 whole entry): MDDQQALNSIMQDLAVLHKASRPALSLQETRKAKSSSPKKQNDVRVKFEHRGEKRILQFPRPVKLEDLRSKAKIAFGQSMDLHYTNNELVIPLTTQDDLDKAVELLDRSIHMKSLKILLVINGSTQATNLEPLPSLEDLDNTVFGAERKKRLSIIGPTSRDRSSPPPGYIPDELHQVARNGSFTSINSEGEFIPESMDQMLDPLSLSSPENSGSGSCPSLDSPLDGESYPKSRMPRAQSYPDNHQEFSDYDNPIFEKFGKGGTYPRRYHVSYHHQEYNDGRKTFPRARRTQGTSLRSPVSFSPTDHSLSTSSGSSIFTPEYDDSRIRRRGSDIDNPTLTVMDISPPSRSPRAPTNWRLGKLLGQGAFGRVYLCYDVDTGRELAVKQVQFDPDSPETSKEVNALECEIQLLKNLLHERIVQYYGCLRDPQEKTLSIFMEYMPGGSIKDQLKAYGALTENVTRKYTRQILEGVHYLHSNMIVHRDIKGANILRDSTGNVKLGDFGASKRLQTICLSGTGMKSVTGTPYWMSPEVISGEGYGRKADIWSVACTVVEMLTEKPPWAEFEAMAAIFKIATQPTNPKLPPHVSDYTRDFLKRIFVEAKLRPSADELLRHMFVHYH

Assay [4] has as its target T3, Breakpoint cluster region protein (Homo sapiens, UniProt P11274).
T3 sequence (P11274 whole entry): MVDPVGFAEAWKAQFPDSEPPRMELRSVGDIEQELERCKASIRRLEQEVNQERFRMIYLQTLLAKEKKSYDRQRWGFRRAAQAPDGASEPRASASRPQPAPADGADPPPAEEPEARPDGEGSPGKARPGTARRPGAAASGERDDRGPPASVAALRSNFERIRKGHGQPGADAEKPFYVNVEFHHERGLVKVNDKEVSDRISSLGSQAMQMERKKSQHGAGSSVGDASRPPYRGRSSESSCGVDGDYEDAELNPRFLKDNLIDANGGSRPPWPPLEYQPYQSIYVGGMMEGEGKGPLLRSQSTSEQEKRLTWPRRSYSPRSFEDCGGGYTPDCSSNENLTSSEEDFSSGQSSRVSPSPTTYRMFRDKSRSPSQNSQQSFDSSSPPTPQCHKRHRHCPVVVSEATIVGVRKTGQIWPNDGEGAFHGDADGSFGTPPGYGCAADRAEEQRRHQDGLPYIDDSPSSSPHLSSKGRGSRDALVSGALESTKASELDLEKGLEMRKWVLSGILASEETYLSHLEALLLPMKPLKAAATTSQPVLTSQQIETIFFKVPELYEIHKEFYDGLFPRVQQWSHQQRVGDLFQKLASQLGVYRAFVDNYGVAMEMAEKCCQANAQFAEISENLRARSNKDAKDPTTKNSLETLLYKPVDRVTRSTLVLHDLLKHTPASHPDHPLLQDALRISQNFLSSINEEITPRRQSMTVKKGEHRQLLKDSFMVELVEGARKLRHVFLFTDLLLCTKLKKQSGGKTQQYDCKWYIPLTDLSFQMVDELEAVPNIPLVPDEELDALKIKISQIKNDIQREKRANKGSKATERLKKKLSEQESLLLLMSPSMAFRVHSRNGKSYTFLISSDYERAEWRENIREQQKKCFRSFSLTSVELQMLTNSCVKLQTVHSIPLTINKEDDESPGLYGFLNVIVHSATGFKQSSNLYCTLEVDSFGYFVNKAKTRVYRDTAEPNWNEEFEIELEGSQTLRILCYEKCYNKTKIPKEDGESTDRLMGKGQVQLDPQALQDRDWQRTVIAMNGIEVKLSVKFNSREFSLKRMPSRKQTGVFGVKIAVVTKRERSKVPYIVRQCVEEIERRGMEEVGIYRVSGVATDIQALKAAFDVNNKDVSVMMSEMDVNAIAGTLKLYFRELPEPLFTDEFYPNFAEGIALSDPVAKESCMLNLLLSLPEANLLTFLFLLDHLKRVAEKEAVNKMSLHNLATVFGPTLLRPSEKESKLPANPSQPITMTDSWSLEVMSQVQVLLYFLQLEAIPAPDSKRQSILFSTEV

For assay [5], the target named is Casein kinase I isoform delta (Homo sapiens, UniProt P48730).
Assay [6] concerns the target Serine/threonine-protein kinase PAK 2 (Homo sapiens, UniProt Q13177).

The source made the active and inactive calls. For most assays here, no stated cut-off is given here; in the data, actives have a measured Kd and inactives only a lower limit.

Chain of Serine/threonine-protein kinase PAK 2 (Q13177 whole entry): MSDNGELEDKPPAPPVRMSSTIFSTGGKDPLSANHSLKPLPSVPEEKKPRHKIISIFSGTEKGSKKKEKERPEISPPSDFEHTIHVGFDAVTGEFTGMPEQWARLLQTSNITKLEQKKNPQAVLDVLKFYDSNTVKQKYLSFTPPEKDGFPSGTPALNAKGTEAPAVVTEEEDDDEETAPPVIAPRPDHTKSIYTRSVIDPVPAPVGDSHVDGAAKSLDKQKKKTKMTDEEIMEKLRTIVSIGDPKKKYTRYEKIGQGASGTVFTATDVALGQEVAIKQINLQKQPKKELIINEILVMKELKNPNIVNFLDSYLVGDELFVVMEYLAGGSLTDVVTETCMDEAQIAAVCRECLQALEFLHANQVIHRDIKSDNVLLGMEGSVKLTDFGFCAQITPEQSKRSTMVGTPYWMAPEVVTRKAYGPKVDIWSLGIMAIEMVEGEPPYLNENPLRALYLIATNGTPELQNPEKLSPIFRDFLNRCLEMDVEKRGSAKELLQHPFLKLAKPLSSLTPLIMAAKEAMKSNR
Chain of Casein kinase I isoform delta (P48730 whole entry, canonical isoform): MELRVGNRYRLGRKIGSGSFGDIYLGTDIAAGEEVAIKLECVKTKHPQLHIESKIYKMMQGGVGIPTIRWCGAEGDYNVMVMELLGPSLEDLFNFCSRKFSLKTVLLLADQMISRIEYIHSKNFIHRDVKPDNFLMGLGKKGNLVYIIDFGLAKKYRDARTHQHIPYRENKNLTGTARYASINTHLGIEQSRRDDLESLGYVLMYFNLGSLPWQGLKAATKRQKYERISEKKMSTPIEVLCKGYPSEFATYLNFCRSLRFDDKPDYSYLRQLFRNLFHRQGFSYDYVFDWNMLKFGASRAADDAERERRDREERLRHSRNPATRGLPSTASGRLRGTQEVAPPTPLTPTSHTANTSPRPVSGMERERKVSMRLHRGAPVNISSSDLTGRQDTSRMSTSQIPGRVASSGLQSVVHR
Chain of Cyclin-dependent kinase 12 (Q9NYV4 whole entry): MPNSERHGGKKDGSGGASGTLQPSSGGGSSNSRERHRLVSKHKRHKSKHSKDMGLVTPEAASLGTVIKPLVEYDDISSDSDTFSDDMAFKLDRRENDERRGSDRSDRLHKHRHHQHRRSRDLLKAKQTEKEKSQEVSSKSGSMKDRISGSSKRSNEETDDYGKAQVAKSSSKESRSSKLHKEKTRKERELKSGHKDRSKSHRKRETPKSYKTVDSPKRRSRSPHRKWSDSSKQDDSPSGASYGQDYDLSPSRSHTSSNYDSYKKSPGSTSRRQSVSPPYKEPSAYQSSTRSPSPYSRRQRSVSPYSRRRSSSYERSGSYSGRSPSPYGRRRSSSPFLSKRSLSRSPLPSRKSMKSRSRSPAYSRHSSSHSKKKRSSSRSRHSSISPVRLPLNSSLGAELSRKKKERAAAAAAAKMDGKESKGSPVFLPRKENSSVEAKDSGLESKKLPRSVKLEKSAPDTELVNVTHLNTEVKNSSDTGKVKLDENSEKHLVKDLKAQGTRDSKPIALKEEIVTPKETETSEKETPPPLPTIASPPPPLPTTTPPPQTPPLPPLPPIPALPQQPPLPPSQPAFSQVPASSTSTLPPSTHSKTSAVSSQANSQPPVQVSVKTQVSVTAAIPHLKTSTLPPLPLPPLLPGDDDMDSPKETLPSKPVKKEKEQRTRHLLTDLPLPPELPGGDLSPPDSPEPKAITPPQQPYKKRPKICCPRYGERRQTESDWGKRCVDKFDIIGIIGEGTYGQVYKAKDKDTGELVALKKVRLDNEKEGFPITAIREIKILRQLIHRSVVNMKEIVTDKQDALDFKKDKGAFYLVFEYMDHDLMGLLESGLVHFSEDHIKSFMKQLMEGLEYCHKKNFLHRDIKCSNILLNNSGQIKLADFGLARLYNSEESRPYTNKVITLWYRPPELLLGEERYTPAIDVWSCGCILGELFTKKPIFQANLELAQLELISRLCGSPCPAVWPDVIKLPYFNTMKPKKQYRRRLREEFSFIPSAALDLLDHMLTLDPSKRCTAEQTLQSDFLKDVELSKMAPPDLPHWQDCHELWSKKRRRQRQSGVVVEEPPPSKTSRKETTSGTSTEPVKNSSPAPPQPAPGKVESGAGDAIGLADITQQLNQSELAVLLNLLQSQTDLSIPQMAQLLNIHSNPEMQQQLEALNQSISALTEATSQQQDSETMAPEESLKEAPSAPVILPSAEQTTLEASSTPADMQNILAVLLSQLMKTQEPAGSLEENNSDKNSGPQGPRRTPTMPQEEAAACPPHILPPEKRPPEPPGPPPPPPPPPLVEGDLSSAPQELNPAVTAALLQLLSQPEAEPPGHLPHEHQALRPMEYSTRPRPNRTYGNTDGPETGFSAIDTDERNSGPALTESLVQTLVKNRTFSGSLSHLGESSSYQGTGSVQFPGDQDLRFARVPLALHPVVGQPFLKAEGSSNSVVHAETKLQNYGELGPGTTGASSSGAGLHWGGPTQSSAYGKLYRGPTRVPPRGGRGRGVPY
Chain of Aurora kinase B (Q96GD4 whole entry): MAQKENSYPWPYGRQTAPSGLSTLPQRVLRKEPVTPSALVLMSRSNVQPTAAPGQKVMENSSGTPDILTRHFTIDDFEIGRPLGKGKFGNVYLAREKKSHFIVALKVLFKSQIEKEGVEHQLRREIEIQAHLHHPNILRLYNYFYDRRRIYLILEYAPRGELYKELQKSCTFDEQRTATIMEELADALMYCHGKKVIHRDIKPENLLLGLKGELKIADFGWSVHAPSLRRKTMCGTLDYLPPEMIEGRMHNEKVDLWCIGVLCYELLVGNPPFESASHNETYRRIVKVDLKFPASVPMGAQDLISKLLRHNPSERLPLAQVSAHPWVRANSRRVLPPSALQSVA
Chain of Insulin receptor (P06213 28-758 limits assumed): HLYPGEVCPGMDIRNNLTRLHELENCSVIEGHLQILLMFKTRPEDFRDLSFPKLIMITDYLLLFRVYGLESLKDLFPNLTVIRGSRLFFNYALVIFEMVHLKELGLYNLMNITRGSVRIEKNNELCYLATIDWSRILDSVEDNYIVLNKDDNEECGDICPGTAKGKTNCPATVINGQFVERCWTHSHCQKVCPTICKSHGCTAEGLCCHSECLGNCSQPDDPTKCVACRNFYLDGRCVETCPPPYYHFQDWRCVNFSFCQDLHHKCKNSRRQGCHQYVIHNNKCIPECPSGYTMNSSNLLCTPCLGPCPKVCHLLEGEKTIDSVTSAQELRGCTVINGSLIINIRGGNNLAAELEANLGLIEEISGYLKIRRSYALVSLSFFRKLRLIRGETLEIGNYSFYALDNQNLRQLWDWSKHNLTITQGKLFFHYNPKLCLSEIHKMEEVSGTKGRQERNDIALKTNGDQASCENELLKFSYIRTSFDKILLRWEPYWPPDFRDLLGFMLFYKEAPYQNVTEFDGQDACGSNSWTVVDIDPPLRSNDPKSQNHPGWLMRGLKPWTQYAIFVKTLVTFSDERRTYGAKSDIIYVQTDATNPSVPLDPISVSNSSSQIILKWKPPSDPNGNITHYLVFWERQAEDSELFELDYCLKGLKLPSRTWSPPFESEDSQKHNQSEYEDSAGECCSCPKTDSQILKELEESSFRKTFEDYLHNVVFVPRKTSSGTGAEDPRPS
Chain of Insulin receptor (P06213 763-1382 limits assumed): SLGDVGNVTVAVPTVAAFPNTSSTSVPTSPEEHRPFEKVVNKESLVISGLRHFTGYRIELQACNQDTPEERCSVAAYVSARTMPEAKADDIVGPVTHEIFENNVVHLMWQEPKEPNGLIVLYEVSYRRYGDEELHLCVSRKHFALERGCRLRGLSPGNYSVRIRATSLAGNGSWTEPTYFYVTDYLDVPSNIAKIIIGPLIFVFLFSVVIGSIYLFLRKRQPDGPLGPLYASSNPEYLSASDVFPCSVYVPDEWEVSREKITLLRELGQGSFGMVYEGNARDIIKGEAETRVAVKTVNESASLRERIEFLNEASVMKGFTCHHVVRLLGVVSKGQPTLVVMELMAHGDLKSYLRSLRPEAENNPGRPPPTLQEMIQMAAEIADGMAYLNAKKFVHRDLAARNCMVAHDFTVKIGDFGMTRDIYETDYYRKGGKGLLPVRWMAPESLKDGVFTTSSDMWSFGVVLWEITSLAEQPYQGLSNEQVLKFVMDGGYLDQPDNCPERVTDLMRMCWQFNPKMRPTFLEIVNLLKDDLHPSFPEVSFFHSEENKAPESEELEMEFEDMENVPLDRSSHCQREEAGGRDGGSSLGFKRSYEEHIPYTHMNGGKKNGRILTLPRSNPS

For the compound `Cn1c(=O)c(F)c(Nc2ccc(I)cc2F)c2c(=O)n(C[C@@H](O)CO)cnc21` [TAK-733], the Kd (on Insulin receptor; in assay [1]; in assay [2]; at Aurora kinase B; in assay [3]; in assay [4]) was > 30 µM (inactive) throughout. Also, the Kd in assay [5] and in assay [6] was > 30 µM (inactive) each time.
Take `COc1cccc(Nc2ncnn3ccc(CN4CC[C@@H](N)[C@H](O)C4)c23)c1` [BMS-690514]: the Kd at Insulin receptor was > 30 µM (inactive); in assay [1], > 30 µM (inactive); in assay [2], > 30 µM (inactive); on Aurora kinase B it was > 30 µM (inactive); in assay [3], 1.05 µM (active); in assay [4] it was > 30 µM (inactive). Further, the Kd in assay [5] and in assay [6] was > 30 µM (inactive) each time.
In the case of `S=C(NCc1ccc2c(c1)OCO2)N1CCN(c2ncnc3c2oc2ccccc23)CC1` [AMUVATINIB], the Kd (on Insulin receptor; in assay [1]; in assay [2]; at Aurora kinase B; in assay [3]; in assay [4]) was > 30 µM (inactive) each time. Also, the Kd in assay [5] and in assay [6] was > 30 µM (inactive) each time.
As for `C=CC(=O)Nc1cc(Nc2nccc(-c3cn(C)c4ccccc34)n2)c(OC)cc1N(C)CCN(C)C` [OSIMERTINIB], the Kd (on Insulin receptor; in assay [1]; in assay [2]; on Aurora kinase B; in assay [3]; in assay [4]) was > 30 µM (inactive) each time. Further, the Kd in assay [5] and in assay [6] was > 30 µM (inactive) each time.
For the compound `Cn1cc(-c2[nH]c3cc(NC(=O)[C@H](N)C4CCCCC4)cc4c3c2C=NNC4=O)cn1`, the Kd at Insulin receptor is > 30 µM (inactive); in assay [1] it was > 30 µM (inactive); in assay [2] it was > 30 µM (inactive); at Aurora kinase B, 0.12 µM (active); in assay [3], > 30 µM (inactive); in assay [4], 1.11 µM (active). The Kd in assay [5] and in assay [6] was > 30 µM (inactive) throughout.
As for `COCCN1CCN(Cc2ccc(-c3n[nH]c4c3C(=O)c3c(NC(=O)NN5CCOCC5)cccc3-4)cc2)CC1` [RGB-286638], the Kd at Insulin receptor was > 30 µM (inactive); in assay [1], 0.947 µM (active); in assay [2], > 30 µM (inactive); at Aurora kinase B, > 30 µM (inactive); in assay [3] it was > 30 µM (inactive); in assay [4], 1.24 µM (active). Also, the Kd in assay [5] is 1.22 µM (active); in assay [6], > 30 µM (inactive).
With `C[C@@H]1COC(Nc2ccc3ncnc(Nc4ccc(OCc5nccs5)c(Cl)c4)c3c2)=N1` [VARLITINIB], the Kd (at Insulin receptor; in assay [1]; in assay [2]; at Aurora kinase B; in assay [3]; in assay [4]) was > 30 µM (inactive) throughout. Moreover, the Kd in assay [5] and in assay [6] was > 30 µM (inactive) throughout.
As to `CCc1cc2c(cc1N1CCC(N3CCOCC3)CC1)C(C)(C)c1[nH]c3cc(C#N)ccc3c1C2=O` [ALECTINIB], the Kd (on Insulin receptor; in assay [1]; in assay [2]; on Aurora kinase B; in assay [3]; in assay [4]) was > 30 µM (inactive) each time. Also, the Kd in assay [5] and in assay [6] was > 30 µM (inactive) in each case.
With `COc1cccc2cc(-c3nc([C@H]4CC[C@H](C(=O)O)CC4)n4ncnc(N)c34)[nH]c12` [OSI-027], the Kd (at Insulin receptor; in assay [1]; in assay [2]; on Aurora kinase B; in assay [3]; in assay [4]) was > 30 µM (inactive) throughout. The Kd in assay [5] and in assay [6] was > 30 µM (inactive) throughout.
Take `COc1ccc2c(OCc3nnc4ccc(-c5ccccc5)nn34)ccnc2c1` [AMG-208]: the Kd (at Insulin receptor; in assay [1]; in assay [2]; on Aurora kinase B; in assay [3]; in assay [4]) was > 30 µM (inactive) throughout. The Kd in assay [5] and in assay [6] was > 30 µM (inactive) throughout.
For the compound `CC[C@@](C)(Nc1ccnc(-c2c[nH]c3ncccc23)n1)C(=O)NCC(F)(F)F` [DECERNOTINIB], the Kd at Insulin receptor was > 30 µM (inactive); in assay [1], > 30 µM (inactive); in assay [2], > 30 µM (inactive); on Aurora kinase B, > 30 µM (inactive); in assay [3], 4.45 µM (active); in assay [4], > 30 µM (inactive). The Kd in assay [5] and in assay [6] was > 30 µM (inactive) each time.
As for `O=C(NOC[C@H](O)CO)c1ccc(F)c(F)c1Nc1ccc(I)cc1F` [MIRDAMETINIB], the Kd (on Insulin receptor; in assay [1]; in assay [2]; on Aurora kinase B; in assay [3]; in assay [4]) was > 30 µM (inactive) throughout. In addition, the Kd in assay [5] and in assay [6] was > 30 µM (inactive) in each case.
Consider `NC[C@@](O)(c1ccc(Cl)cc1)c1ccc(-c2cn[nH]c2)cc1` [AT-13148], for which the Kd (at Insulin receptor; in assay [1]; in assay [2]; at Aurora kinase B; in assay [3]; in assay [4]) was > 30 µM (inactive) throughout. Further, the Kd in assay [5] and in assay [6] was > 30 µM (inactive) each time.

The term Kd denotes the constant that tells how readily two partners part at equilibrium.

These data come from ChEMBL document CHEMBL3991601, “The target landscape of clinical kinase drugs” (Science, 2017).
